Measurements taken from ChEMBL document CHEMBL5346907, “Discovery of a novel oral type Ⅰ CDK8 inhibitor against acute myeloid leukemia” (Eur J Med Chem, 2023).
Activity calls are given as the source filed them. No cut-off for these calls is given here.

Experiments:
[1] = molecular target: T1, Cyclin-dependent kinase 8 (Homo sapiens, UniProt P49336); assay: Inhibition of CDK8 (unknown origin) in presence of ATP by ADP-Glo assay
[2] = molecular target: Tyrosine-protein kinase TXK (Homo sapiens) (UniProt P42681); assay: Inhibition of TXK (unknown origin) at 1 uM preincubated for 10 mins followed by substrate addition measured for 60 to 120 mins by HTRF assay relative to control; details: time 70-130 min
[3] = molecular target: Tyrosine-protein kinase Lck (Homo sapiens) (UniProt P06239); assay: Inhibition of LCK (unknown origin) at 1 uM preincubated for 10 mins followed by substrate addition measured for 60 to 120 mins by HTRF assay relative to control; details: time 70-130 min
C1498 [4] = assay: Antitumor activity against mouse C1498 cells allografted in AML Balb/C mouse model assessed as decrease in Ki67 expression administered orally daily for 15 days measured after 3 weeks by IHC analysis; assay type: functional, cell-based; details: dose 40-80 mg/kg, route po, time 15.0 day
[5] = molecular target: Ephrin type-A receptor 4 (Homo sapiens) (UniProt P54764); assay: Inhibition of EPHA4 (unknown origin) at 1 uM preincubated for 10 mins followed by substrate addition measured for 60 to 120 mins by HTRF assay relative to control; details: time 70-130 min
[6] = molecular target: T1, Cyclin-dependent kinase 8; assay: Binding affinity to CDK8 in human HCT-116 cells upto 4 uM incubated for 12 hrs by biotin pull down based Western blot analysis; assay type: cell-based
[7] = Clearance in Sprague-Dawley rat at 10 mg/kg, po; assay type: ADME, organism-based; details: in vivo
[8] = molecular target: Vascular endothelial growth factor receptor 2 (Homo sapiens) (UniProt P35968); assay: Inhibition of KDR (unknown origin) at 1 uM preincubated for 10 mins followed by substrate addition measured for 60 to 120 mins by HTRF assay relative to control; details: time 70-130 min
[9] = molecular target: Cyclin-Y/Cyclin-dependent kinase 16 (Homo sapiens) (UniProt Q00536+Q8ND76); assay: Inhibition of CDK16/CyclinY (unknown origin) at 1 uM preincubated for 10 mins followed by substrate addition measured for 60 to 120 mins by HTRF assay relative to control; assay type: protein-complex assay; details: time 70-130 min
[10] = molecular target: Tyrosine-protein kinase receptor TYRO3 (Homo sapiens) (UniProt Q06418); assay: Inhibition of TYRO3 (unknown origin) at 1 uM preincubated for 10 mins followed by substrate addition measured for 60 to 120 mins by HTRF assay relative to control; details: time 70-130 min
[11] = MRT in Sprague-Dawley rat at 2 mg/kg, iv; assay type: ADME, organism-based; details: in vivo
[12] = molecular target: Tyrosine-protein kinase receptor UFO (Homo sapiens) (UniProt P30530); assay: Inhibition of AXL (unknown origin) at 1 uM preincubated for 10 mins followed by substrate addition measured for 60 to 120 mins by HTRF assay relative to control; details: time 70-130 min
[13] = Acute toxicity in C57BL/6 mouse assessed as histopathological change in kidney at 2000 mg/kg, IG measured for 14 days by H&E staining based analysis; assay type: organism-based; details: in vivo, po, 336 h, time 14 day
[14] = molecular target: Tyrosine-protein kinase Fyn (Homo sapiens) (UniProt P06241); assay: Inhibition of FYN b (unknown origin) at 1 uM preincubated for 10 mins followed by substrate addition measured for 60 to 120 mins by HTRF assay relative to control; details: time 70-130 min
[15] = Acute toxicity in C57BL/6 mouse assessed as histopathological change in lung at 2000 mg/kg, IG measured for 14 days by H&E staining based analysis; assay type: organism-based; details: in vivo, po, 336 h, time 14 day
[16] = molecular target: Ephrin type-A receptor 3 (Homo sapiens) (UniProt P29320); assay: Inhibition of EPHA3 (unknown origin) at 1 uM preincubated for 10 mins followed by substrate addition measured for 60 to 120 mins by HTRF assay relative to control; details: time 70-130 min
[17] = molecular target: Proto-oncogene tyrosine-protein kinase Src (Homo sapiens) (UniProt P12931); assay: Inhibition of SRC (unknown origin) at 1 uM preincubated for 10 mins followed by substrate addition measured for 60 to 120 mins by HTRF assay relative to control; details: time 70-130 min
[18] = molecular target: Activated CDC42 kinase 1 (Homo sapiens) (UniProt Q07912); assay: Inhibition of ACK (unknown origin) at 1 uM preincubated for 10 mins followed by substrate addition measured for 60 to 120 mins by HTRF assay relative to control; details: time 70-130 min
[19] = molecular target: Receptor tyrosine-protein kinase erbB-4 (Homo sapiens) (UniProt Q15303); assay: Inhibition of HER4 (unknown origin) at 1 uM preincubated for 10 mins followed by substrate addition measured for 60 to 120 mins by HTRF assay relative to control; details: time 70-130 min
HL-60 [20] = assay: Induction of apoptosis in human HL-60 cells assessed as early apoptosis cells at 1 uM incubated for 48 hrs by annexin V-FITC/PI staining based flow cytometry (reference value: 2.08 %); assay type: functional
HCT-116 = assay: Antiproliferative activity against human HCT-116 cells incubated for 48 hrs by CCK8 assay; assay type: functional
C1498 [21] = assay: Downregulation of STAT1 S727 phosphorylation in mouse C1498 cells allografted in AML Balb/C mouse model at 40 to 80 mg/kg, po administered daily for 15 days measured after 3 weeks by IHC analysis; assay type: functional, organism-based; details: dose 40-80 mg/kg, time 15.0 day
HL-60 [22] = assay: Induction of apoptosis in human HL-60 cells assessed as late apoptotic cells at 1 uM incubated for 48 hrs by annexin V-FITC/PI staining based flow cytometry (reference value: 1.07 %); assay type: functional
[23] = molecular target: CDK2/Cyclin A2 (Homo sapiens) (UniProt P24941+P20248); assay: Inhibition of CDK2/Cyclin A2 (unknown origin) at 1 uM preincubated for 10 mins followed by substrate addition measured for 60 to 120 mins by HTRF assay relative to control; assay type: protein-complex assay; details: time 70-130 min
HL-60 [24] = assay: Induction of apoptosis in human HL-60 cells assessed as early apoptosis cells at 5 uM incubated for 48 hrs by annexin V-FITC/PI staining based flow cytometry (reference value: 2.08 %); assay type: functional
CDK9/cyclin T1 = CDK9/cyclin T1 (Homo sapiens, UniProt P50750); assay: Inhibition of CDK9/Cyclin T1 (unknown origin) preincubated for 10 mins followed by substrate addition measured for 60 to 120 mins by HTRF assay; assay type: protein-complex assay
[25] = molecular target: Cyclin-dependent kinase 2/cyclin E1 (Homo sapiens) (UniProt P24864+P24941); assay: Inhibition of CDK2/Cyclin E1 (unknown origin) at 1 uM preincubated for 10 mins followed by substrate addition measured for 60 to 120 mins by HTRF assay relative to control; assay type: protein-complex assay; details: time 70-130 min
[26] = molecular target: Epidermal growth factor receptor (Homo sapiens) (UniProt P00533); assay: Inhibition of EGFR (unknown origin) at 1 uM preincubated for 10 mins followed by substrate addition measured for 60 to 120 mins by HTRF assay relative to control; details: time 70-130 min
[27] = molecular target: CDK4/Cyclin D3 (Homo sapiens) (UniProt P11802+P30281); assay: Inhibition of CDK4/Cyclin D3 (unknown origin) at 1 uM preincubated for 10 mins followed by substrate addition measured for 60 to 120 mins by HTRF assay relative to control; assay type: protein-complex assay; details: time 70-130 min
HL-60 [28] = assay: Induction of apoptosis in human HL-60 cells assessed as early apoptosis cells at 10 uM incubated for 48 hrs by annexin V-FITC/PI staining based flow cytometry (reference value: 2.08 %); assay type: functional
[29] = Tmax in Sprague-Dawley rat at 10 mg/kg, po; assay type: ADME, organism-based; details: in vivo

T1 sequence (P49336 whole entry): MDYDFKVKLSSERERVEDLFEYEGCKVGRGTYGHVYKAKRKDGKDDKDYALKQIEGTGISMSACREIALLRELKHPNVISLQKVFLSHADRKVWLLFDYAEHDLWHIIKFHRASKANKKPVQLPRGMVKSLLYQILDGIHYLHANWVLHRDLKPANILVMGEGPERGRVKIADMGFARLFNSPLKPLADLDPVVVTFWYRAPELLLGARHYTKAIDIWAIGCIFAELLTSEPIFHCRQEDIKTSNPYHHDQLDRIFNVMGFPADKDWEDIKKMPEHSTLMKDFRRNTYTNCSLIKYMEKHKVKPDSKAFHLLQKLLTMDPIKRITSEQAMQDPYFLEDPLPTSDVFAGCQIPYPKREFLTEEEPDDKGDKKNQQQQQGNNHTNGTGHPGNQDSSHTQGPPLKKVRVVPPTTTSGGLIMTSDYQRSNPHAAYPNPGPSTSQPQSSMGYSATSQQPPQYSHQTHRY
Sequence of Ephrin type-A receptor 4 (Homo sapiens) (P54764 whole entry): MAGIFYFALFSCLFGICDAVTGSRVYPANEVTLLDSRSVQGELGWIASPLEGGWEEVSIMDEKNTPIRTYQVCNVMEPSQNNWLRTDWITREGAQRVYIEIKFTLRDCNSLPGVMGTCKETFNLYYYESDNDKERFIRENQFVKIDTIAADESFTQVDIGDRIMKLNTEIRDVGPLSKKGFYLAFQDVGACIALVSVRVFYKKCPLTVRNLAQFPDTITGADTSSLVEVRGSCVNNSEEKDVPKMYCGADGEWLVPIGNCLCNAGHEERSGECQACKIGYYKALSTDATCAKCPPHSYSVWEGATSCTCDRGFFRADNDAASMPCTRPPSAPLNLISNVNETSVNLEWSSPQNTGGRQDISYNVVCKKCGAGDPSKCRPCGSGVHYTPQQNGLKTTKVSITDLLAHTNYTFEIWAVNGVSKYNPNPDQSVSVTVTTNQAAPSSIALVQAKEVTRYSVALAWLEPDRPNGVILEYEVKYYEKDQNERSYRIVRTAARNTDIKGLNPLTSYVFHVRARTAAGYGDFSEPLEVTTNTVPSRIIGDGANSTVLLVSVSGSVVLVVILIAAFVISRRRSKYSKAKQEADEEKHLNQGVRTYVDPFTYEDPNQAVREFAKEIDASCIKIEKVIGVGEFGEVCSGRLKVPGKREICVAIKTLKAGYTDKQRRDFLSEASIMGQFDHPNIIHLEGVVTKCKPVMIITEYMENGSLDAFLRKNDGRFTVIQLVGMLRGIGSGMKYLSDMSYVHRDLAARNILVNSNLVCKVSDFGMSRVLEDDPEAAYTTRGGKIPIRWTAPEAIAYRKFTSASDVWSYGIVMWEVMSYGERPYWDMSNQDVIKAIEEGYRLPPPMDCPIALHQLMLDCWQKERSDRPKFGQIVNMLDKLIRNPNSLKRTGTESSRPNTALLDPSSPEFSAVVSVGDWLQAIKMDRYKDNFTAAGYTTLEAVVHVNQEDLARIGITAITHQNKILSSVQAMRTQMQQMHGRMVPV
Sequence of Tyrosine-protein kinase Fyn (Homo sapiens) (P06241 2-537 limits assumed): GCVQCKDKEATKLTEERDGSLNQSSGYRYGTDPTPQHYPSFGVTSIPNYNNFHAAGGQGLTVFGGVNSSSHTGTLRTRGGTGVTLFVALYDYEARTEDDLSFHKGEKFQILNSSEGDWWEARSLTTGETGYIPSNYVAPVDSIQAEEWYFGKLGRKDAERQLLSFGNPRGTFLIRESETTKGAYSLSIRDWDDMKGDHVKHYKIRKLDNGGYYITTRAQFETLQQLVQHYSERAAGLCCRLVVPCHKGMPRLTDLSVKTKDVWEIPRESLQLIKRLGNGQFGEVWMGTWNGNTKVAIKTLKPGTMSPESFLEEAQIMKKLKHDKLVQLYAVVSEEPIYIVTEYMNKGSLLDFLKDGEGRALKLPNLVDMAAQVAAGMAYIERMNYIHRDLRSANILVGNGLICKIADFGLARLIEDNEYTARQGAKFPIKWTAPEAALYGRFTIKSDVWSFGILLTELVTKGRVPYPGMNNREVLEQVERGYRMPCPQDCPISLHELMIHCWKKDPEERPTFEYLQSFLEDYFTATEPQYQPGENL
Sequence of Tyrosine-protein kinase receptor UFO (Homo sapiens) (P30530 whole entry): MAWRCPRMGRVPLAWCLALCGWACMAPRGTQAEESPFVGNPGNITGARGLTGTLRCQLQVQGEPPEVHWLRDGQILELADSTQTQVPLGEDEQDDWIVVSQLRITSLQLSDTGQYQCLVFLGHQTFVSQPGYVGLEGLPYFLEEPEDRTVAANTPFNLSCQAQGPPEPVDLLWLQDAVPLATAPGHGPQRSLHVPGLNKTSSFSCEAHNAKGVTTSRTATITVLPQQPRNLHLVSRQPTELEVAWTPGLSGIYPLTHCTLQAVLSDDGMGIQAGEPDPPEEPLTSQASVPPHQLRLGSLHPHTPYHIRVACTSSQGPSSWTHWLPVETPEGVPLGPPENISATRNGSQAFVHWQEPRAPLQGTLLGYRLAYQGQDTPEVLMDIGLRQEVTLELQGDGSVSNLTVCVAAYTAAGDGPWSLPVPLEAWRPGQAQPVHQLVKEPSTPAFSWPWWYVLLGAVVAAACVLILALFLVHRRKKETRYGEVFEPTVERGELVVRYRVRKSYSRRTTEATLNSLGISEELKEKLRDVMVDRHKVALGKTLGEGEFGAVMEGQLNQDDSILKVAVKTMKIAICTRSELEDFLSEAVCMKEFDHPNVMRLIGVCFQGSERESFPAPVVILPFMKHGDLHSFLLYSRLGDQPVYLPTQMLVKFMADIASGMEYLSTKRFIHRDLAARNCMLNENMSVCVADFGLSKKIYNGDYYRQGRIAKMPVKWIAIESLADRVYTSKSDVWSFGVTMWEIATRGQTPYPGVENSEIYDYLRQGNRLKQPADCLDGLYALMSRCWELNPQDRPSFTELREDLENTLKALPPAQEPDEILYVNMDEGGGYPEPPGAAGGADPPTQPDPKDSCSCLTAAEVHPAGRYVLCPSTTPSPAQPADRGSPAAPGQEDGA
Sequence of CDK9/cyclin T1 (O60563 whole entry): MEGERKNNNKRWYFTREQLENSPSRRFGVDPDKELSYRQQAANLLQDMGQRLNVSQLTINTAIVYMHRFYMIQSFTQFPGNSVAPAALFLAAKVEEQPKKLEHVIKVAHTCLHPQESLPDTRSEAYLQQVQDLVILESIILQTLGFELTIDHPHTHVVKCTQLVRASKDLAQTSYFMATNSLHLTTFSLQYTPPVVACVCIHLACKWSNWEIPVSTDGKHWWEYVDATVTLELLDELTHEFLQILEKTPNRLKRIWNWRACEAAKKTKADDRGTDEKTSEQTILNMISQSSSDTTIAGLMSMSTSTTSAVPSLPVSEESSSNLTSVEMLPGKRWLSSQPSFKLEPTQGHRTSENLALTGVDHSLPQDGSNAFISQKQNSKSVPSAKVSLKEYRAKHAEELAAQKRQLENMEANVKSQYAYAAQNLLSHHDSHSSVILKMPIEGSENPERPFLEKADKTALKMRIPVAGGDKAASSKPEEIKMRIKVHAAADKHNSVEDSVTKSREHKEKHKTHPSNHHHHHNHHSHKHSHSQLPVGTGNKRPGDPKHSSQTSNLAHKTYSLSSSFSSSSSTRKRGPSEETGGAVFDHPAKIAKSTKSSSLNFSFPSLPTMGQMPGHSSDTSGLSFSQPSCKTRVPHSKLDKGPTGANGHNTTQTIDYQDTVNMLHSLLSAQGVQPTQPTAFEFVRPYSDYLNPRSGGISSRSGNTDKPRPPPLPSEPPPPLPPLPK
Sequence of CDK9/cyclin T1 (P50750 whole entry): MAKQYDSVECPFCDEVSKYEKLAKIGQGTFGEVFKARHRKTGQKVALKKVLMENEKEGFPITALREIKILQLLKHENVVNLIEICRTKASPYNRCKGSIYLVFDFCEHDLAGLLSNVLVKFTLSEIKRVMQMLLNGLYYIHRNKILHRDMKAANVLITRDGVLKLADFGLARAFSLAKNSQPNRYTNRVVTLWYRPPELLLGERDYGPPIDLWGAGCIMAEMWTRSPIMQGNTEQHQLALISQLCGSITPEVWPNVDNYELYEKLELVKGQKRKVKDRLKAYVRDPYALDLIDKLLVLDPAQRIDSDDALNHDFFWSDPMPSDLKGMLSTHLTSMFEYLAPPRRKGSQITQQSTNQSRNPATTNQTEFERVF
Sequence of Tyrosine-protein kinase Lck (Homo sapiens) (P06239 2-509 limits assumed): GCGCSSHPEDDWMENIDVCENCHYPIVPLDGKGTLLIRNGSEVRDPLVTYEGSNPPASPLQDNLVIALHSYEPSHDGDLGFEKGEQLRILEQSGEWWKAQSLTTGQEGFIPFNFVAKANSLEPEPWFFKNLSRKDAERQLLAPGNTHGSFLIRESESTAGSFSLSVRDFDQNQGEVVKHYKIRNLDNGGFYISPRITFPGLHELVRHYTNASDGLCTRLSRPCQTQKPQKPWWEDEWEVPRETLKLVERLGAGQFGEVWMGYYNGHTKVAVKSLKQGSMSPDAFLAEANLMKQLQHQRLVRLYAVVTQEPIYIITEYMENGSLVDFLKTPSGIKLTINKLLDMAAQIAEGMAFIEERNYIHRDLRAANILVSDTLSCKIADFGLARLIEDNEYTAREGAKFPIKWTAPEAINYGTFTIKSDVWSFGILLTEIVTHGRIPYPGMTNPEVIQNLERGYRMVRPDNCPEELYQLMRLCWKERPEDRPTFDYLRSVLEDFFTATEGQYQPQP
Sequence of Tyrosine-protein kinase TXK (Homo sapiens) (P42681 whole entry): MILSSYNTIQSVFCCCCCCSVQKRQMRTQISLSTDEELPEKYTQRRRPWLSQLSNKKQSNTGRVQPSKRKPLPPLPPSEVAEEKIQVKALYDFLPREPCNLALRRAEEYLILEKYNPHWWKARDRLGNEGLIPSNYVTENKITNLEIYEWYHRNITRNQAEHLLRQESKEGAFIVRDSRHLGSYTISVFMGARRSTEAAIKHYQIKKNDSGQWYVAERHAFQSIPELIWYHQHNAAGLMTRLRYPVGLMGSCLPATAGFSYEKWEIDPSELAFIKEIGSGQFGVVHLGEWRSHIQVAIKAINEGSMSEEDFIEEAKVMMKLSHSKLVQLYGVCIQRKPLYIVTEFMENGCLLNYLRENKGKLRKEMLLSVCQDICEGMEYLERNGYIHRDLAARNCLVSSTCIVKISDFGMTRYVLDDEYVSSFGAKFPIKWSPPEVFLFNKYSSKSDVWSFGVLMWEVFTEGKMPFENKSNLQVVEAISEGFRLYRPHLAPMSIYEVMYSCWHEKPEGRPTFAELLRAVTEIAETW

NC(=O)c1cccc(-c2cnc3[nH]ccc3c2)c1
IC50 [1]: 51.9 nM
inhibition [2]: 0%
inhibition [3]: 1.59%
Activity (C1498 [4]): Dose-Dependent Effect
inhibition [5]: 1.96%
Activity [6]: Active
CL/F [7]: 285 mL/min/kg
inhibition [8]: 31.1%
inhibition [9]: 16.6%
inhibition [10]: 7%
MRT [11]: 1.5 h
inhibition [12]: 12.5%
Activity [13]: Non-Toxic
inhibition [14]: 24.8%
Activity [15]: Non-Toxic
inhibition [16]: 0%
inhibition [17]: 0%
inhibition [18]: 21.6%
inhibition [19]: 0%
Activity (HL-60 [20]): 79.4%
GI50 (HCT-116): > 50000 nM
Activity (C1498 [21]): Active
Activity (HL-60 [22]): 38%
inhibition [23]: 3.99%
Activity (HL-60 [24]): 22.4%
IC50 (CDK9/cyclin T1): 711 nM
inhibition [25]: 9.01%
inhibition [26]: 8.01%
inhibition [27]: 7.02%
Activity (HL-60 [28]): 0.15%
Tmax [29]: 1 h
